Reference: paper PMC10660337, “Mutate and Conjugate: A Method to Enable Rapid In-Cell Target Validation” (ACS Chemical Biology, 2023)

Test system: T1, BRD4(1)^WT transiently expressed in HEK293T cells
T1 construct: the first bromodomain of BRD4 [BRD4(1)]; StrepII; expressed in transfected cells; host or cells: HEK293T
Experiment: In-cell labeling by clickable probes, in-gel fluorescence
Type: cell-based, human
Conditions: 10 μM probe, 1 h
Description: To evaluate proteome-wide selectivity of the clickable probes, HEK293T cells transiently expressing BRD4(1)^L94C or BRD4(1)^WT were incubated with 10 μM of probes 28–30 and 42 for 1 h before the cells were lysed and the CuAAC reaction with TAMRA-PEG3-azide was conducted (Figure 7A). […]
reaction mix was taken and 8 µL of Lamelli buffer added, and the samples denatured by heating at 95 °C for 10 min. Samples were separated by gel electrophoresis on NuPAGE™ 4–12%, Bis-Tris precast polyacrylamide gels (Thermofisher). Following electrophoresis, gels were stained for 15 min with InstantBlueTM Coomasie® stain (Abcam), destained, and imaged using Bio-rad molecular imager.
Bio-rad Image Lab 6.1 was used to process the data.
In-cell target engagement
In-cell labeling by clickable probes
Transfected HEK293T cells at ~90% confluency were incubated for 1 h with a DMSO control (0.5% DMSO final concentration) or a click probe (10 µM, 0.5% DMSO final concentration) diluted in Opti- […]
Cells were then harvested and lysed using the previously described protocol above. The resulting cell lysates were diluted to 2 mg/mL using the previously described protocol above.
Cell lysates (50 µL) were then incubated with TAMRA-PEG3-Azide (200 µM), TCEP·HCl (2 mM), TBTA (200 µM), and CuSO4 (2 mM), for 1 h at rt in the dark. Samples were then prepared and separated by gel electrophoresis using the previously described protocol above.
Gels were imaged for fluorescence using Bio-rad molecular imager and then stained for 15 min with InstantBlueTM Coomasie® stain (Abcam), destained, and imaged using Bio-rad molecular imager.
Typically, the very bottom of the gel was removed prior to imaging due to residual, unreacted, TAMRA-PEG3-Azide, which would cause oversaturation and poor image quality. […]
MEM media. Cells were then harvested and lysed using the previously described protocol above. […]

With `C#CCOc1ccc(-c2c(C)noc2NC(=O)C=C)cc1` [Compound 30] the “In-cell labeling of BRD4(1)^WT (fluorescent band ∼49 kDa)” value was “not visible”.
